From ChEMBL document CHEMBL1148696, “Synthesis, characterization, cytotoxicity, antibacterial and antifungal evaluation of some new platinum (IV) and palladium (II) complexes of thiodiamines” (2007)
Values after ≈ are worked out from the molar mass of the structure shown.

Key:
Aspergillus flavus [1] = test: Antifungal activity against Aspergillus flavus after 48 hrs by micro-broth dilution method; type: functional
Aspergillus fumigatus [2] = test: Antifungal activity against Aspergillus fumigatus after 48 hrs by micro-broth dilution method; type: functional
Aspergillus fumigatus [3] = test: Antifungal activity against Aspergillus fumigatus after 10 hrs by spore germination inhibition assay; type: functional
Aspergillus niger [4] = test: Antifungal activity against Aspergillus niger after 10 hrs by spore germination inhibition assay; type: functional
Aspergillus niger [5] = test: Antifungal activity against Aspergillus niger after 48 hrs by micro-broth dilution method; type: functional
Aspergillus flavus [6] = test: Antifungal activity against Aspergillus flavus after 10 hrs by spore germination inhibition assay; type: functional
Escherichia coli [7] = test: Antibacterial activity against Escherichia coli by micro dilution method; type: functional, organism-based
Escherichia coli [8] = test: Antibacterial activity against Escherichia coli after 18 hrs by disk diffusion method; type: functional, organism-based

Compound	MIC (Aspergillus flavus [1])	MIC (Aspergillus fumigatus [2])	MIC (Aspergillus fumigatus [3])	MIC (Aspergillus niger [4])	MIC (Aspergillus niger [5])	MIC (Aspergillus flavus [6])	MIC (Escherichia coli [7])	inhibition zone (IZ) (Escherichia coli [8])
C[C@@H]1[C@H](O)[C@@H](C)/C=C/C=C/C=C/C=C/C=C/C=C/C=C/[C@H](O[C@@H]2O[C@H](C)[C@@H](O)[C@H](N)[C@@H]2O)C[C@@H]2O[C@](O)(C[C@@H](O)C[C@@H](O)[C@H](O)CC[C@@H](O)C[C@@H](O)CC(=O)O[C@H]1C)C[C@H](O)[C@H]2C(=O)O [AMPHOTERICIN B]	5 µg/mL (≈ 5.41 µM)	5 µg/mL (≈ 5.41 µM)	5 µg/mL (≈ 5.41 µM)	5 µg/mL (≈ 5.41 µM)	5 µg/mL (≈ 5.41 µM)	5 µg/mL (≈ 5.41 µM)		
GENTAMICIN							1 µg	16 mm
